Experimental data published in ChEMBL document CHEMBL5126608, “Development, Optimization, and In Vivo Validation of New Imidazopyridine Chemotypes as Dual TLR7/TLR9 Antagonists through Activity-Directed Sequential Incorporation of Relevant Structural Subunits” (J Med Chem, 2022).

Columns and labels:
[1] = biological target: T1, Toll-like receptor 8 (Homo sapiens, UniProt Q9NR97)
T1 sequence (Q9NR97 whole entry): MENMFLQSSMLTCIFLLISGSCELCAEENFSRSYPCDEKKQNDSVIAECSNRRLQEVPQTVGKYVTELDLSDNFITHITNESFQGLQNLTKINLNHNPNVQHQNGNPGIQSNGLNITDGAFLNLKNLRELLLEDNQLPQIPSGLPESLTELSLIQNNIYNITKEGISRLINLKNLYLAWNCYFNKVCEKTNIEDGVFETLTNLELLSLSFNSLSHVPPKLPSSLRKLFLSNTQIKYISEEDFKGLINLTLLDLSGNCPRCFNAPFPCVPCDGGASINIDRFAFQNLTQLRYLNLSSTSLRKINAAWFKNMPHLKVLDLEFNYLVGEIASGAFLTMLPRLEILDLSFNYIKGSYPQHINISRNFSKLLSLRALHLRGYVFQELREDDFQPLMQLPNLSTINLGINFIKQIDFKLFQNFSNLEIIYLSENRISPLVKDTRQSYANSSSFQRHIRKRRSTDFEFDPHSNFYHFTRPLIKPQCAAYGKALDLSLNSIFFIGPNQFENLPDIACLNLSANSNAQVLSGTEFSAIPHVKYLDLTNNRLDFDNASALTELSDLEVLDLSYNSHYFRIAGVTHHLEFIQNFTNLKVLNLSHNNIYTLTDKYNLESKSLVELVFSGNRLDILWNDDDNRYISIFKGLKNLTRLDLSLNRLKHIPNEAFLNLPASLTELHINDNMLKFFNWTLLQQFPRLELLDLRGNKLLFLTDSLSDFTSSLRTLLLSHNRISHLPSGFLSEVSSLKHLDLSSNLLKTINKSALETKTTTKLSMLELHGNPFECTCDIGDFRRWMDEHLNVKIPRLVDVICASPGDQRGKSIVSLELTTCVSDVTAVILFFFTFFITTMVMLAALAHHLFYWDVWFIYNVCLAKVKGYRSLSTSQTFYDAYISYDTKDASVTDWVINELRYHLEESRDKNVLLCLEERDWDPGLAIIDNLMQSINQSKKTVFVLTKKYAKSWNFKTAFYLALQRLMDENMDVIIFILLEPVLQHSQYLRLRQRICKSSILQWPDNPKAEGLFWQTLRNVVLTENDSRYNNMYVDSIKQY

[2] = biological target: T2, Toll-like receptor 9 (Homo sapiens, UniProt Q9NR96); assay: Antagonist activity at human TLR9 expressed in HEK-blue hTLR9 cells assessed as inhibition of CpGB-induced NFkappaB activation preincubated with compound for 1 hrs followed by CpGB addition and measured next day by SEAP-based spectrophotometry assay; format: cell-based
T2 sequence (Q9NR96 whole entry): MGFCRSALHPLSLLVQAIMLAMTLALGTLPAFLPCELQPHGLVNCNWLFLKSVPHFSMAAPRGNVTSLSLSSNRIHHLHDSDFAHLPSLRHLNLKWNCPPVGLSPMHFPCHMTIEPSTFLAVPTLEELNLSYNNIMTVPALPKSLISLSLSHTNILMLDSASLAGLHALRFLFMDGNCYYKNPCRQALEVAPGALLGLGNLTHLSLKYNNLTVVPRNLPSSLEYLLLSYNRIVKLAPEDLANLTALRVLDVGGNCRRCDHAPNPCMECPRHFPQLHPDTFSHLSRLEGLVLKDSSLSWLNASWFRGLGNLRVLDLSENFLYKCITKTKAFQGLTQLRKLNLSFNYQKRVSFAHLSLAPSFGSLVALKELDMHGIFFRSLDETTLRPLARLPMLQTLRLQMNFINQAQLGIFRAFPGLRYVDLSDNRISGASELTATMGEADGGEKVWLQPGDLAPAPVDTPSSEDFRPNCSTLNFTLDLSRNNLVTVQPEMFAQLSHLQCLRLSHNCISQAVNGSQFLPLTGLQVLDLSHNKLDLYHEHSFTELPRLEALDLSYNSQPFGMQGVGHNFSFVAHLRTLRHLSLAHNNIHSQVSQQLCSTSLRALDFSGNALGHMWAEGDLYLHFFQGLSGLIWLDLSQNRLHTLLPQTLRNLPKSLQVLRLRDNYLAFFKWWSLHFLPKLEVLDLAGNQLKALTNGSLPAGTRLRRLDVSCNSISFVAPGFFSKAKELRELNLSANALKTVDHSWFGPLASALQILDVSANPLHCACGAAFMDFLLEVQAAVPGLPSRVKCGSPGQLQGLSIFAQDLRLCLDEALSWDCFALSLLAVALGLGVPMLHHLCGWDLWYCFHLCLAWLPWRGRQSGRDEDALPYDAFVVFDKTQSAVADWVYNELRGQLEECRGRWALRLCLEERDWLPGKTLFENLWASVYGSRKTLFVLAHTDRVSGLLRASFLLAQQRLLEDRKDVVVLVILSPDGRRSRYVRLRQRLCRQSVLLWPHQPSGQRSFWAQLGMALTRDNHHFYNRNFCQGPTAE

IC50 [1]: 17.2 µM | IC50 [2]: 0.019 µM
SMILES: COc1ccc(-c2cn3ccc(NCCCN4CCCC4)cc3n2)c(OC)c1
